This note sets out measurements from article PMC13053910, “Covalent Protein Inhibitors via Tyrosine and Tryptophan Conjugation with Cyclic Imine Mannich Electrophiles” (Angewandte Chemie (International Ed. in English), 2026).

One test deals with T1, CBX8 ChD Y39F (Homo sapiens, UniProt Q9HC52, Y39F).
T1 construct: 6His (N); TEV site (ENLYFQG), read by me from the printed insert DNA (N); host or cells: E. coli (BL21 CodonPlus RIL or Rosetta 2), pET-28a(+)
T1 sequence (Q9HC52 11-69 Y39F limits assumed): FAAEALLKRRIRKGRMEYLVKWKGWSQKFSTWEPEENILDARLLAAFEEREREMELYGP
The test can be described thus: Time-dependent fluorescence polarization displacement assay, CBX8 Y39F. The test is classed as binding. As to conditions: for IC50: Figure 5d, CBX8 Y39F 2 µM, probe 100 nM. The method, then:
Observed masses are shown (expected average mass for CBX8 ChD = 8792 Da). The observed mass difference (913 Da) agrees with the expected mass change of 913 Da. b) Labeled protein was detected by gel shift on 16.5% Tris‐Tricine SDS‐PAGE. […] Gel analysis was conducted on a 2.5% agarose gel in 10 mM sodium borate buffer. […] Assays were conducted using SW2_113 as an FP probe (Figure S20) at 100 nM. All proteins were used at 2 µM in PBS (pH 7), 0.02% Tween 20. Error bars represent SD. […] (μM); no other compound label is printed beside the IC50 lines
2.2 Fluorescence Displacement Assay to Evaluate Time-dependent potency of Imine Covalent Inhibitors to CBX ChD. Fluorescence polarization (FP) was measured by titration of CBX ChDs (CBX8 ChD/CBX8 ChD Y39F/CBX2 ChD) to a fluoresceine-labelled probe as previously reported ^1. Fluorescence displacement assays were performed in black 384-well plates with optical bottoms. Buffer used in FP assays consists of 100 mM Na2HPO4, 150 mM NaCl, 0.02% Tween 20. […] Two-fold dilutions of covalent inhibitors were used, starting with 100 µM as highest peptide concentration to 0.049 µM as the lowest. Four replicates were tested at each concentration. Fluorescence anisotropy was read at different time points. Raw data were analyzed using GraphPad Prism 7 following a “one site-Fit logIC50” competition model with any outliers (95 % confidence interval) being excluded.
Time-dependent fluorescence displacement assay Fluorescence polarization (FP) was measured by titration of CBX ChDs (CBX8 ChD/CBX8 ChD Y39F/CBX2 ChD) to a fluorescein-labelled probe as previously reported.^8 Fluorescence displacement assays were performed in black 384-well plates with optical bottoms. Buffer used in FP assays consists of 100 mM Na2HPO4, 150 mM NaCl, 0.02% Tween 20. […] Fluorescence anisotropy was read at different time points. […] Raw data were analyzed using GraphPad Prism 7 following a “one site-Fit logIC50” competition model with any outliers (95 % confidence interval) being excluded.
A general note: Polarisation of emitted light reports the rotation of a fluorescent probe.

Test [1] concerns HOXA9 gene expression in THP1 cells. The test can be described thus: qRT-PCR analysis of HOXA9 gene expression in THP1 cells. The settings on record: 10 µM, 48 h. The test is classed as cell-based, Human. The method, then:
Figure 7 Cellular activity of covalent, cyclic imine inhibitors to CBX8. a) qRT‐PCR analysis of HOXA9 gene expression in THP1 cells after 48 h of compound treatment at the indicated dose. N = 3. Error bars represent SD. Statistical significance was calculated using Student's t‐test. ** = p < 0.01, **** = p < 0.0001, b) qRT‐PCR analysis of HOXA9 gene expression in THP1 cells treated with increasing doses of compound for 48 h. N = 3. Error bars represent SD.
Figure S24. Cellular activity of covalent, cyclic imine inhibitors to CBX8. qRT-PCR analysis of HOXA9 gene expression in THP1 cells after 48 h of compound treatment at the indicated dose. N = 3. Error bars represent s.d. Statistical significance determined by Student’s T test. * = p <0.05, ** = p < 0.01, *** = p < 0.001, **** = p < 0.0001.
2.4 Cell Culture Cell line, Media and Culture Conditions HEK293T cells were cultured in Dubecco’s Modified Essential Media (DMEM), 10% fetal bovine serum (FBS, JR Scientific), 1% glutagro (Corning), 1% penicillin/streptomycin (Corning), 1% sodium pyruvate (Corning). Human THP1 cells were cultured in RPMI (Gibco), 10% FBS (J R Scientific), 1% Sodium pyruvate (Invitrogen), 1% Pen/Strep (Invitrogen), 1% Glutamax (Thermo Scientific), 0.1% 2-mercaptoethanol.
Cells were harvested after 48 h for RNA extraction. […] SYBR Green Mastermix (Thermo Scientific) was used for quantitative PCR. […]
For orientation: In qPCR the cycle at which signal appears reflects the starting amount.

The target of another test is T2, CBX8 ChD (Homo sapiens, UniProt Q9HC52).
T2 construct: CBX chromodomain constructs (addgene plasmid #25158 (CBX2), and #62514 (CBX8, provided by Cheryl Arrowsmith)); 6His; host or cells: E. coli (BL21 CodonPlus RIL or Rosetta 2)
T2 sequence (Q9HC52 11-69 limits assumed): T1 sequence (Q9HC52 11-69 Y39F limits assumed) with F29Y
The test can be described thus: Covalent conjugation to CBX8 ChD, UV integration on LC/MS. It counts as binding. The method, then: Percent covalent conjugation was determined by UV integration on LC/MS after overnight incubation at 10 µM compound and protein at 37 °C.
2.3 In Vitro CBX ChD Labeling with Covalent Inhibitors. 10 µM purified CBX ChD was incubated with imine covalent inhibitors (10 µM) in PBS buffer (pH 7) at 37 °C or R.T. Protein labeling samples were precipitated using MeOH and CHCl3 at the volume ratio of MeOH:CHCl3:sample=3:0.5:1, washed twice using cold MeOH, and air dried. Dried protein pellets were resuspended in aqueous buffer (0.1% formic acid, 300 mM ammonium acetate).
Precipitated samples were analyzed on a C4 reversed-phase column (e.g., 2.1 × 150 mm, 3–5 µm particle size) using a linear gradient of solvent A (0.1% formic acid in water) and solvent B (0.1% formic acid in acetonitrile). Elution was monitored by UV absorbance at 215 nm, and mass spectra were acquired in positive ion mode to confirm the identities of unlabeled and labeled protein species.
Labeling yield (%)=AlabeledAlabeled+Aunlabeled×100
For P2, 10 µM purified CBX ChD was incubated with P2 (10 µM) in PBS buffer (pH 7) at 37 °C or R.T. for 1.5 hours, as well as 12 hours overnight. […] Dried protein pellets were resuspended in aqueous buffer (0.1% formic acid, 300 mM ammonium acetate), and protein labeling were characterized and quantitated by ESI LC-MS.

Where a chain is given by its changes, count along the chain named. Read-outs that look alike come from different tables or passages of the source.

In general, IC50 refers to the midpoint of a concentration-inhibition curve. Consider `CC[C@H](C)[C@H](NC(=O)[C@@H](NC(=O)c1ccc(Oc2ccccc2)cc1)C1CCCC1)C(=O)N[C@@H](CCCCN(CC)CCCCCCN1CCN=CC1=O)C(=O)N[C@@H](CO)C(N)=O` [P1b], for which the “change in IC50 upon extended incubation” value at CBX8 ChD Y39F (CBX8 Y39F mutant) is reported as “no change in IC50”. In addition, the IC50 at CBX8 ChD Y39F (read-out: IC50 at time 0) is 12 µM; at CBX8 ChD Y39F (IC50 at 20 h) it was 11 µM. The “reduction of HOXA9 gene expression (in words)” value in test [1] is listed as “most effective at reducing HOXA9 gene expression”. Further, at CBX8 ChD (10 µM compound and protein, 37 °C, overnight), the “% conj. to CBX8 at 37 °C Overnight 10 μM each” value is reported as about 90%. In addition, the “effect of GSH on CBX8 ChD labeling yield” value on CBX8 ChD (presence of 10 mM GSH) is reported as “no effect on yield”.
